# Data reported in patent US20240115531A1, “Composition for Treating Hair and Scalp” (DR. KURT WOLFF GMBH & CO. KG, priority 2020, published 2024).
# “Also recorded” adds a separate entry of the source.
# Key:
# [1] = system: Human epidermal keratinocyte cells (HaCaT); test: CyQUANT assay, cell proliferation of HaCaT keratinocytes; assay type: cell-based; conditions: versus control without DMG, FIG. 2
# Experimental: (§1) 1. As part of an in vitro study, the effect of Na-dimethylglycinate was examined in a cell culture model with human horn-forming keratinocyte cells. For this purpose, HaCaT cells were cultured for 1, 3, 5, and 7 days in DMEM medium (including fetal calf serum and an anti biotic-anti mycotic mix) and, among other things, the viability and proliferation of the cells were determined using suitable measurement methods, and the expression of the growth factors relevant for cell growth was measured.
# A so-called CyQUANT assay was carried out to measure the proliferation. In this fluorescence-based assay, the fluorescent dye used binds to DNA (deoxyribonucleic acid), with the content of cellular DNA being a direct measure of the number of cells in a sample.
# Human epidermal keratinocyte cells (HaCaT) were seeded in a 96-well plate at a cell density of 5,000 cells/well and cultured in medium (DMEM with 10% FBS, 1% penicillin-streptomycin, 0.5% fungizone). The next day and after a further 24 h as well as 48 h and 72 h of cultivation at 37° C. and 5% by volume CO2, the cell culture medium without (control) or with the active ingredient concentrations already present was changed. […]
# The cell proliferation was determined using the CyQUANT assay. The fluorescence was measured in triplicate and normalized to the control at 24 hours. […]
# VEGF = test: Gene expression of VEGF by qRT-PCR in HaCaT cells; assay type: cell-based, human; conditions: after 24 hours of cultivation, versus control without DMG, FIG. 3
# Experimental: VEGF (Vascular Endothelial Growth Factor) promotes the growth and formation of new blood and lymphatic vessels. Gene expression was measured using a standard method known as quantitative real-time PCR (qRT-PCR).
# Human epidermal keratinocyte cells (HaCaT) were seeded in a 6-well plate at a cell density of 140,000 cells/well and cultured in medium (DMEM with 10% FBS, 1% penicillin-streptomycin, 0.5% fungizone) at 37° C. und 5% by volume CO2. The next day, the cell culture medium without (control) or with the active substance concentrations already present in each case was changed, and the cells were harvested after 24 hours. Gene expression was measured using qRT-PCR based on studies already published in B. V. Diaz, M.-C. Lenoir, A. Ladoux, C. Frelin, M. Demarchez, S. Michel, Journal of Biological Chemistry 2000, 275, 642-650.
# The relative gene expression determined by qRT-PCR (triple determination, normalized to the respective gene expression of a constitutively expressed gene; GAPDH—glyceraldehyde-3-phosphate dehydrogenase) of VEGF is shown. Shown is the mean value with standard deviation.
# [2] = system: Human epidermal keratinocyte cells (HaCaT); test: MTT assay, cell viability of HaCaT keratinocytes; assay type: cell-based; conditions: versus control without DMG, FIG. 1
# Experimental: as §1
# For this measurement, a so-called MTT assay was used to determine cellular metabolic activity as an indicator of cell viability and cytotoxicity. This colorimetric assay is based on the reduction of a yellow tetrazolium salt (3-(4,5-dimethylthiazol-2-yl)-2,5-diphenyltetrazolium bromide or MTT) to purple formazan crystals by metabolically active cells.
# Human epidermal keratinocyte cells (HaCaT) were seeded in a 96-well plate at a cell density of 5,000 cells/well and cultured in medium (DMEM with 10% FBS, 1% penicillin-streptomycin, 0.5% fungizone). […]
# Cell viability was determined using the MTT assay. The absorption was measured in quadruplicate and normalized to the control at 24 hours. […]
smiles,measurement,setting,value
"CN(C)CC(=O)[O-].[Na+] [DMG, sodium dimethylglycinate]",cell proliferation (CyQUANT fluorescence normalized to the control at 24 hours),[1]; after 48 h of cultivation,clear increase
same,cell proliferation (CyQUANT fluorescence normalized to the control at 24 hours),[1]; after 72 h of cultivation,clear increase
same,relative gene expression of VEGF (normalized to GAPDH),VEGF,significant increase; also recorded: significantly increased
same,cell viability (MTT absorption normalized to the control at 24 hours),[2]; after 48 h of cultivation,clear increase
same,cell viability (MTT absorption normalized to the control at 24 hours),[2]; after 72 h of cultivation,clear increase
